Laboratory results: the NIST ThermoML archive (doi:10.1021/je700288s)
± gives the expanded uncertainty stated by the source.

Test: mn = molality of the nth substance listed, in mol/kg
Settings: 101 kPa, Liquid; for speed of sound: Sing-around technique in a fixed-path interferometer; for mass density: Vibrating tube method

O=C([O-])CC(O)(CC(=O)O)C(=O)O.[K+] [potassium dihydrogen citrate] + O
Settings | mass density [kg/m3] | speed of sound [m/s]
283.15 K, m1 = 0.0063 | 1000.47 ± 0.16 | 1448.8 ± 1.1
283.15 K, m1 = 0.0186 | 1001.97 ± 0.16 | 1450.1 ± 1.1
283.15 K, m1 = 0.0314 | 1003.53 ± 0.16 | 1451.5 ± 1.1
283.15 K, m1 = 0.0407 | 1004.65 ± 0.16 | 1452.5 ± 1.1
283.15 K, m1 = 0.0561 | 1006.52 ± 0.16 | 1454.2 ± 1.1
283.15 K, m1 = 0.0574 | 1006.67 ± 0.16 | 1454.3 ± 1.1
283.15 K, m1 = 0.0868 | 1010.19 ± 0.17 | 1457.2 ± 1.1
283.15 K, m1 = 0.0905 | 1010.65 ± 0.17 | 1457.9 ± 1.1
283.15 K, m1 = 0.1399 | 1016.4 ± 0.17 | 1462.9 ± 1.1
283.15 K, m1 = 0.1655 | 1019.36 ± 0.17 | 1465.4 ± 1.1
283.15 K, m1 = 0.284 | 1032.79 ± 0.19 | 1477 ± 1.2
283.15 K, m1 = 0.396 | 1044.96 ± 0.2 | 1487.4 ± 1.2
283.15 K, m1 = 0.4766 | 1053.37 ± 0.21 | 1494.6 ± 1.2
283.15 K, m1 = 0.5861 | 1064.69 ± 0.23 | 1504.1 ± 1.2
283.15 K, m1 = 0.5922 | 1065.27 ± 0.23 | 1504.7 ± 1.2
283.15 K, m1 = 0.7578 | 1081.71 ± 0.26 | 1518.5 ± 1.2
288.15 K, m1 = 0.0063 | 999.861 ± 0.17 | 1466.9 ± 1.1
288.15 K, m1 = 0.0186 | 1001.34 ± 0.16 | 1468.2 ± 1.1
288.15 K, m1 = 0.0314 | 1002.87 ± 0.16 | 1469.5 ± 1.1
288.15 K, m1 = 0.0407 | 1003.98 ± 0.16 | 1470.4 ± 1.1
288.15 K, m1 = 0.0561 | 1005.82 ± 0.22 | 1472 ± 1.1
288.15 K, m1 = 0.0574 | 1005.97 ± 0.12 | 1472.1 ± 1.1
288.15 K, m1 = 0.0868 | 1009.45 ± 0.19 | 1475 ± 1.1
288.15 K, m1 = 0.0905 | 1009.9 ± 0.15 | 1475.4 ± 1.1
288.15 K, m1 = 0.1399 | 1015.58 ± 0.17 | 1480.1 ± 1.1
288.15 K, m1 = 0.1655 | 1018.5 ± 0.17 | 1482.5 ± 1.1
288.15 K, m1 = 0.284 | 1031.76 ± 0.19 | 1493.4 ± 1.2
288.15 K, m1 = 0.396 | 1043.8 ± 0.2 | 1503.1 ± 1.2
288.15 K, m1 = 0.4766 | 1052.13 ± 0.21 | 1509.8 ± 1.2
288.15 K, m1 = 0.5861 | 1063.34 ± 0.23 | 1518.9 ± 1.2
288.15 K, m1 = 0.5922 | 1063.9 ± 0.22 | 1519.4 ± 1.2
288.15 K, m1 = 0.7578 | 1080.19 ± 0.26 | 1532.5 ± 1.2
293.15 K, m1 = 0.0063 | 998.956 ± 0.16 | 1483.1 ± 1.1
293.15 K, m1 = 0.0186 | 1000.41 ± 0.16 | 1484.3 ± 1.1
293.15 K, m1 = 0.0314 | 1001.93 ± 0.16 | 1485.5 ± 1.1
293.15 K, m1 = 0.0407 | 1003.03 ± 0.16 | 1486.4 ± 1.1
293.15 K, m1 = 0.0561 | 1004.84 ± 0.21 | 1487.9 ± 1.1
293.15 K, m1 = 0.0574 | 1004.99 ± 0.12 | 1488 ± 1.1
293.15 K, m1 = 0.0868 | 1008.42 ± 0.18 | 1490.7 ± 1.1
293.15 K, m1 = 0.0905 | 1008.87 ± 0.15 | 1491 ± 1.1
293.15 K, m1 = 0.1399 | 1014.48 ± 0.17 | 1495.5 ± 1.1
293.15 K, m1 = 0.1655 | 1017.37 ± 0.17 | 1497.7 ± 1.1
293.15 K, m1 = 0.284 | 1030.49 ± 0.18 | 1507.8 ± 1.2
293.15 K, m1 = 0.396 | 1042.41 ± 0.2 | 1517 ± 1.2
293.15 K, m1 = 0.4766 | 1050.65 ± 0.21 | 1523.3 ± 1.2
293.15 K, m1 = 0.5861 | 1061.76 ± 0.23 | 1531.8 ± 1.2
293.15 K, m1 = 0.5922 | 1062.33 ± 0.22 | 1532.3 ± 1.2
293.15 K, m1 = 0.7578 | 1078.48 ± 0.25 | 1544.7 ± 1.2
298.15 K, m1 = 0.0063 | 997.788 ± 0.16 | 1497.3 ± 1.1
298.15 K, m1 = 0.0186 | 999.232 ± 0.16 | 1498.5 ± 1.1
298.15 K, m1 = 0.0314 | 1000.73 ± 0.16 | 1499.6 ± 1.1
298.15 K, m1 = 0.0407 | 1001.82 ± 0.16 | 1500.4 ± 1.1
298.15 K, m1 = 0.0561 | 1003.61 ± 0.2 | 1501.8 ± 1.1
298.15 K, m1 = 0.0574 | 1003.75 ± 0.12 | 1501.9 ± 1.1
298.15 K, m1 = 0.0868 | 1007.15 ± 0.18 | 1504.4 ± 1.1
298.15 K, m1 = 0.0905 | 1007.6 ± 0.15 | 1504.7 ± 1.1
298.15 K, m1 = 0.1399 | 1013.15 ± 0.17 | 1508.8 ± 1.1
298.15 K, m1 = 0.1655 | 1016 ± 0.17 | 1510.9 ± 1.1
298.15 K, m1 = 0.284 | 1029 ± 0.18 | 1520.5 ± 1.1
298.15 K, m1 = 0.396 | 1040.81 ± 0.2 | 1529 ± 1.2
298.15 K, m1 = 0.4766 | 1048.98 ± 0.21 | 1535 ± 1.2
298.15 K, m1 = 0.5861 | 1060 ± 0.23 | 1543 ± 1.2
298.15 K, m1 = 0.5922 | 1060.56 ± 0.22 | 1543.5 ± 1.2
298.15 K, m1 = 0.7578 | 1076.59 ± 0.25 | 1555.2 ± 1.2
303.15 K, m1 = 0.0063 | 996.385 ± 0.16 | 1509.7 ± 1.1
303.15 K, m1 = 0.0186 | 997.809 ± 0.16 | 1510.7 ± 1.1
303.15 K, m1 = 0.0314 | 999.297 ± 0.16 | 1511.8 ± 1.1
303.15 K, m1 = 0.0407 | 1000.37 ± 0.16 | 1512.5 ± 1.1
303.15 K, m1 = 0.0561 | 1002.15 ± 0.2 | 1513.8 ± 1.1
303.15 K, m1 = 0.0574 | 1002.29 ± 0.12 | 1513.9 ± 1.1
303.15 K, m1 = 0.0868 | 1005.65 ± 0.18 | 1516.3 ± 1.1
303.15 K, m1 = 0.0905 | 1006.09 ± 0.15 | 1516.6 ± 1.1
303.15 K, m1 = 0.1399 | 1011.59 ± 0.17 | 1520.5 ± 1.1
303.15 K, m1 = 0.1655 | 1014.43 ± 0.17 | 1522.4 ± 1.1
303.15 K, m1 = 0.284 | 1027.31 ± 0.18 | 1531.4 ± 1.1
303.15 K, m1 = 0.396 | 1039.02 ± 0.2 | 1539.4 ± 1.2
303.15 K, m1 = 0.4766 | 1047.12 ± 0.21 | 1545 ± 1.2
303.15 K, m1 = 0.5861 | 1058.06 ± 0.22 | 1552.6 ± 1.2
303.15 K, m1 = 0.5922 | 1058.61 ± 0.22 | 1553 ± 1.2
303.15 K, m1 = 0.7578 | 1074.53 ± 0.25 | 1564.2 ± 1.2
308.15 K, m1 = 0.0063 | 994.762 ± 0.16 | 1520.3 ± 1.1
308.15 K, m1 = 0.0186 | 996.176 ± 0.16 | 1521.3 ± 1.1
308.15 K, m1 = 0.0314 | 997.649 ± 0.16 | 1522.3 ± 1.1
308.15 K, m1 = 0.0407 | 998.709 ± 0.16 | 1523 ± 1.1
308.15 K, m1 = 0.0561 | 1000.47 ± 0.15 | 1524.2 ± 1.1
308.15 K, m1 = 0.0574 | 1000.61 ± 0.15 | 1524.3 ± 1.1
308.15 K, m1 = 0.0868 | 1003.95 ± 0.16 | 1526.5 ± 1.1
308.15 K, m1 = 0.0905 | 1004.38 ± 0.16 | 1526.8 ± 1.1
308.15 K, m1 = 0.1399 | 1009.84 ± 0.17 | 1530.4 ± 1.1
308.15 K, m1 = 0.1655 | 1012.65 ± 0.17 | 1532.3 ± 1.1
308.15 K, m1 = 0.284 | 1025.42 ± 0.18 | 1540.7 ± 1.1
308.15 K, m1 = 0.396 | 1037.05 ± 0.2 | 1548.2 ± 1.2
308.15 K, m1 = 0.4766 | 1045.1 ± 0.21 | 1553.5 ± 1.2
308.15 K, m1 = 0.5861 | 1055.95 ± 0.22 | 1560.7 ± 1.2
308.15 K, m1 = 0.5922 | 1056.5 ± 0.22 | 1561.1 ± 1.2
308.15 K, m1 = 0.7578 | 1072.31 ± 0.25 | 1571.6 ± 1.2
